Experiment [1] has as its system HEK293 cells stably expressing wildtype human APP695 protein (HEK-APPwt cells). As to the kind of experiment: Aβ Cell Based Assay (Aβ1-40 secretion, ELISA). Conditions: reduction of Aβ1-40 secretion from HEK-APPwt cells, 6 hours incubation, DAPT as 100% inhibition reference. As for the experimental part: Aβ Cell Based Assay Procedure
In the following assay, the proteolytic activity of BACE in cells exposed to varying concentrations of a compound of interest is measured by observing the amount of Aβ1-40 secreted from HEK293 cells (Human Embryonic Kidney epithelial cell line) stably expressing wildtype human APP695 protein (HEK-APPwt cells).
HEK-APPwt cells were grown in high glucose DMEM (Dulbecco's Modified Eagles Medium SIGMA Cat. #D5796) supplemented with 25 mM HEPES (4-(2-hydroxyethyl)-1-piperazineethanesulfonic acid) (pH 7.4) (Invitrogen Cat. #15630-114), 0.1 mM NEAA (Non-essential Amino Acids) (BioWhittaker Cat. #13-114E), 10% fetal bovine serum (SIGMA Cat. #F4135) and 250 μg/mL hygromycin (Invitrogen Cat. #10687-010) in T-225 flasks at 37° C. with 5% CO2 and humidity control.
Test compounds were initially prepared in DMSO and diluted with DMEM media containing 2% FBS (Fetal bovine serum). Ten standard compound solutions were prepared having a range of concentrations. The standard compound solutions were used to determine the EC50 of the test compound. The range of concentrations chosen may depend on the compound's predicted potency.
To prepare the cells for the assay, a flask containing HEK-APPwt cells were trypsinized briefly (1 mL trypsin), and once the cells detached, 4 mL of 10% FBS-DMEM was added to the flask. The detached cells were centrifuged at 900 rpm for 5 min to form a pellet.
The HEK-APPwt cell pellet was re-suspended with 10 mL DMEM media containing 2% FBS. 80 μL of the cell suspension was added to each well of a 96-well cell culture plate to give 100×10^4 cells/mL. 10 μL of a standard compound solution was added to each well of the 96-well cell culture plate followed by 10 μL of Alamar blue solution. The cells were incubated at 37° C. in a 5% CO2 incubator for 6 hours.
At the end of the incubation, the plates were removed from incubator, and the supernatant was collected. Aβ1-40 concentration in the medium was measured by using a commercial Aβ1-X ELISA kit (IBL, Japan Cat. #27729). Briefly, the ELISA plates were coated with an anti-human Aβ (N)(82E1) mouse IgG monoclonal antibody. A horseradish peroxidase conjugated anti-human Aβ11-28 mouse IgG monoclonal antibody was used for detection. The cell culture supernatant was diluted with EIA buffer+protease inhibitors (kit buffer containing protease inhibitors (1 mL PI/30 mL buffer)). A 100 μL aliquot of the diluted supernatant was added to each well of the ELISA plate and incubated for 6 hrs at 4° C. The ELISA plate was washed 8 times with phosphate buffered saline (PBS) containing 0.05% Tween 20.
A 100 μL of detection antibody was then added and incubated for 1 hour at 4° C. The plate was washed 8 times with PBS buffer containing 0.05% Tween 20 followed by addition of 100 μL of the chromogen tetramethylbenzidine (TMB). The plate was incubated in the dark at room temperature for about 30 min and a stop solution (1N H2SO4) was added.
The intensity of the color developed was measured at 450 nm. The optical density at 450 nm (OD450) is proportional to the concentration of human Aβ1-40 secreted by the cell. As a reference, N—[N-(3,5-difluorophenacetyl-L-alanyl)]-S-phenylglycine t-butyl ester (DAPT, a γ-secretase inhibitor) was used to indicate 100% inhibition of BACE activity. Thus, the assay measures the ability of a compound of interest to reduce Aβ1-40 secretion. Compound potency was reported as the EC50 by calculating the percent inhibition at all concentration levels and the data were fit with non-linear curve fitting algorithm using in GraphPad Prism.

Another experiment addresses T1, BACE-1 enzyme (Homo sapiens, UniProt P56817).
T1 construct: purchased R & D Systems 931AS
As to the kind of experiment: BACE Fluorescence Resonance Energy Transfer (FRET) Assay. The class given is biochemical. Conditions: peptide substrate, pH 4-4.5, 30 min pre-incubation, 1.5 hours at room temperature. The protocol:
BACE Fluorescence Resonance Energy Transfer (FRET) Assay
In the following assay, the proteolytic activity of BACE is measured by observing cleavage of a fluorescent group from a peptide substrate containing a rhodamine fluorescent donor and a quenching acceptor.
The inhibitory activity of compounds of Formula (I) may be compared to a statine derived control inhibitor STA200 (MP Biomedical Cat. #STA-200). The cleavage reaction occurs when a BACE-1 substrate (Invitrogen, Cat. #P2986) was added to a reaction mixture containing BACE-1 enzyme (R & D Systems, Cat. #931AS) and allowed to proceed for 1.5 hours. Fluorescence, used as a marker of BACE activity, is monitored using 540 nm excitation and 585 nm emission wavelengths (Envision, Perkin Elmer).
A typical assay reaction contains BACE-1 enzyme—in assay buffer (50 mM sodium acetate, pH 4-4.5, 0.01% CHAPS (3-[(3-Cholamidopropyl)dimethylammonio]-1-propanesulfonate), 0.0125% TritonX-100, 0.006% EDTA) which is pre-incubated for 30 minutes with test compound in 7.5% DMSO. The reaction is initiated with the addition of BACE-1 substrate in assay buffer and allowed to proceed for 1.5 hours at room temperature. Assays are conducted in black 384-well microtiter plates and scanned at room temperature using 540 nm excitation and 585 nm emission wavelengths.
A test compound's activity is reported as the IC50.

T1 sequence (P56817 46-457 limits assumed): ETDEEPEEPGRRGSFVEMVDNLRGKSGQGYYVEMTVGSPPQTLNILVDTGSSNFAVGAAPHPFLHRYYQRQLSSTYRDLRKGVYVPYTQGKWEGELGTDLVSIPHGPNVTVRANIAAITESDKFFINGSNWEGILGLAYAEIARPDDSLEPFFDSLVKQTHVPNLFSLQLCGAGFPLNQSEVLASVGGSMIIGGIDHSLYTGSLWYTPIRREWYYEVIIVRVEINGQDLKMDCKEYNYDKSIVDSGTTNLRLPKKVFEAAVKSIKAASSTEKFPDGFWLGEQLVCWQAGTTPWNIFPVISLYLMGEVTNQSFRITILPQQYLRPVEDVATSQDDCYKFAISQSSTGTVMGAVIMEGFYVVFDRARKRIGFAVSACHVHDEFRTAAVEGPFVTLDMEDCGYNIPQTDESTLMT

The compound `O=C(Nc1nc2cc(OCc3ccccc3)ccc2[nH]1)c1cc2ccccc2cn1` [Example 1, Isoquinoline-3-carboxylic acid (5-benzyloxy-1H-benzoimidazol-2-yl)-amide] registered an EC50 in experiment [1] of 0.12 µM. Moreover, the midpoint of inhibition at BACE-1 enzyme, the IC50, lay at 0.085 µM.
For the compound `O=C(Nc1nc2cc(OCCc3ccccc3)ccc2[nH]1)c1cc2ccccc2cn1` [Example 2, Isoquinoline-3-carboxylic acid (5-phenethyloxy-1H-benzoimidazol-2-yl)-amide], in experiment [1], the response was half-maximal at 2 µM (EC50). The compound further showed an IC50 at BACE-1 enzyme of 0.19 µM.
The corresponding values for `O=C(Nc1nc2cc(OCc3ccc(C(F)(F)F)cc3)ccc2[nH]1)c1cc2ccccc2cn1` [Example 3, Isoquinoline-3-carboxylic acid [5-(4-trifluoromethyl-benzyloxy)-1H-benzoimidazol-2-yl]-amide] are 0.55 µM and 0.95 µM.
The corresponding values for `O=C(Nc1nc2cc(OCc3ccc(F)cc3)ccc2[nH]1)c1cc2ccccc2cn1` [Example 4, Isoquinoline-3-carboxylic acid [5-(4-fluoro-benzyloxy)-1H-benzoimidazol-2-yl]-amide] are 0.16 µM and 0.1 µM.
In the same order, the values of `O=C(Nc1nc2cc(OCc3ccc(F)cc3F)ccc2[nH]1)c1cc2ccccc2cn1` [Example 5, Isoquinoline-3-carboxylic acid [5-(2,4-difluoro-benzyloxy)-1H-benzoimidazol-2-yl]-amide] are 1.2 µM and 0.86 µM.
With `O=C(Nc1nc2cc(OCCC3CCCC3)ccc2[nH]1)c1cc2ccccc2cn1` [Example 6, Isoquinoline-3-carboxylic acid [5-(2-cyclopentyl-ethoxy)-1H-benzoimidazol-2-yl]-amide], in experiment [1], the concentration for a half-maximal effect (EC50) worked out at 0.16 µM. At BACE-1 enzyme, this compound registered a concentration for half-maximal inhibition (IC50) of 0.26 µM.
Take `O=C(Nc1nc2cc(N3CCC(c4ccccc4)CC3)ccc2[nH]1)c1cc2ccccc2cn1` [Example 7, Isoquinoline-3-carboxylic acid [5-(4-phenyl-piperidin-1-yl)-1H-benzoimidazol-2-yl]-amide]: the EC50 in experiment [1] amounted to 1.4 µM. For the same compound, the 50% inhibitory concentration (IC50) on BACE-1 enzyme worked out at 0.1 µM.
In the same order, the values of `O=C(Nc1nc2cc(OCCCc3ccccc3)ccc2[nH]1)c1cc2ccccc2cn1` [Example 8, Isoquinoline-3-carboxylic acid [5-(3-phenyl-propoxy)-1H-benzoimidazol-2-yl]-amide] are 1.2 µM and 0.47 µM.
`O=C(Nc1nc2cc(-c3ccccc3)ccc2[nH]1)c1cc2ccccc2cn1` [Example 9, Isoquinoline-3-carboxylic acid (5-phenyl-1H-benzoimidazol-2-yl)-amide] yielded a concentration giving a half-maximal response (EC50) in experiment [1] of 1.09 µM. This compound gave a half-inhibitory concentration (IC50) on BACE-1 enzyme of 0.19 µM.
Consider `COc1cccc(-c2ccc3[nH]c(NC(=O)c4cc5ccccc5cn4)nc3c2)c1` [Example 10, Isoquinoline-3-carboxylic acid [5-(3-methoxy-phenyl)-1H-benzoimidazol-2-yl]-amide], for which, in experiment [1], the half-maximal effective concentration (EC50) was 1 µM. This compound had a 50% inhibitory concentration (IC50) against BACE-1 enzyme of 0.16 µM.
`O=C(Nc1nc2cc(NCc3ccccc3)ccc2[nH]1)c1cc2ccccc2cn1` [Example 11, Isoquinoline-3-carboxylic acid (5-benzylamino-1H-benzoimidazol-2-yl)-amide] registered an EC50 in experiment [1] of 0.6 µM. Further, the concentration for half-maximal inhibition (IC50) at BACE-1 enzyme was determined as 0.13 µM.
In experiment [1], `O=C(Nc1nc2cc(N(Cc3ccccc3)Cc3ccccc3)ccc2[nH]1)c1cc2ccccc2cn1` [Example 12, Isoquinoline-3-carboxylic acid (5-dibenzylamino-1H-benzoimidazol-2-yl)-amide] had an EC50 of 2.3 µM. Further, 0.38 µM corresponded to half-maximal inhibition on BACE-1 enzyme (IC50).
